This note sets out measurements from article PMC8844424, “Optimization, purification and characterization of laccase from Ganoderma leucocontextum along with its phylogenetic relationship” (Scientific Reports, 2022).

This assay has as its system Glacc110 (purified laccase of G. leucocontextum). Nature of the assay: spectrophotometric oxidation assay at […] nm, Lineweaver-Burk plot. In kind it is biochemical, Ganoderma leucocontextum. The following applies: 1-10 mM guaiacol, 100 mM citrate-phosphate buffer, pH 3.0; temperature not stated for kinetics.

By Km is commonly meant the concentration of substrate that gives half-maximal velocity. `COc1ccccc1O` [guaiacol]: the Km is 1660 µM.
